Assay results as given in publication PMC3527104 (Bioorganic & medicinal chemistry, 2012).

How the values were obtained:
[1] = molecular target: T1, α7-nAChRs (Mus musculus, UniProt P49582); details: CD1 mice, i.v.; frontal cortex, thalamus, striatum, hippocampus; post-injection
[2] = molecular target: T1, α7-nAChRs; assay: blocking dissection study with PHA543613 in mice; details: PHA543613 0.5 mg/kg s.c., 15 min before tracer; 90 min after tracer

T1 sequence (P49582 23-502): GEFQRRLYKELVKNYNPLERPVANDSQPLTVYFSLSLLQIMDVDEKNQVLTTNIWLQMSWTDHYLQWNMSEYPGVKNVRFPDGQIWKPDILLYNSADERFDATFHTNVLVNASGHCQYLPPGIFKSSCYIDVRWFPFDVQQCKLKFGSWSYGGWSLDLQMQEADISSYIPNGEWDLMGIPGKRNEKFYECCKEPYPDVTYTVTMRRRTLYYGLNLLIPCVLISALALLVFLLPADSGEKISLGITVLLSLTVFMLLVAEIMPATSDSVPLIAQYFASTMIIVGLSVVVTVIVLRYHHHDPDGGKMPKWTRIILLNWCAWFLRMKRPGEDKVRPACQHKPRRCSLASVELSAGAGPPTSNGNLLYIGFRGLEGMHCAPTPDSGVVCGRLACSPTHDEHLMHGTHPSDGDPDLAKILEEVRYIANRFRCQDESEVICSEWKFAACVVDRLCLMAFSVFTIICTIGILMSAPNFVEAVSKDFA

Structure (SMILES): [11CH3]N1CC2CN(c3ccc(-c4ccc5[nH]ccc5c4)nc3)CC21 (racemic) [[^11C]rac-1, 5-(5-(6-[^11C]methyl-3,6-diazabicyclo[3.2.0]heptan-3-yl)pyridin-2-yl)-1H-indole]
- time of peak radioactivity accumulation [1]: 30 min

Structure (SMILES): O=C(N[C@H]1CN2CCC1CC2)c1cc2ccoc2cn1 [PHA543613]
- blockade of [^11C]rac-1 binding in the cerebellum [2]: minimal
- inhibition of [^11C]rac-1 binding in hippocampus and frontal cortex [2]: significantly inhibited
